Measurements published in US10639289B2, “Application of neuraminidase and inhibitors thereof in myocardial ischemia and myocardial infarction” (CHINA PHARMACEUTICAL UNIVERSITY, priority 2016, dated 2020).

Legend:
myocardial neuraminidase = experiment: Myocardial neuraminidase level by ELISA after isoproterenol modeling; type: in vivo, SD rats; details: ISO model rats; for Effect on the expression level of myocardial neuraminidase: ELISA, in words; for Neuraminidase concentration (myocardial neuraminidase expression level): 3 days
Procedure: 1. The acute myocardial ischemia model in rats with ISO: SD rats are selected and divided according to body weight into six groups: blank control group, model group, ZA high dose group (0.5 mg/kg iv) and ZA low dose group (0.2 mg/kg iv), OS high dose group (10 mg/kg po), OS low dose group (5 mg/kg po), with 10 rats in each group. The groups with drug administration are administered the drugs continuously for 3 days, and on the second day of drug administration, and 30 minutes after the drug administration, they are performed subcutaneous injection of ISO at a dose of 60 mg/kg; on the third day of drug administration, and 30 minutes after the drug administration, they are also performed subcutaneous injection of ISO at a dose of 60 mg/kg; on the fourth day their tissue samples such as blood and heart are collected on the fourth day. […]
3.3 Determination of Myocardial Neuraminidase Level
The level of myocardial neuraminidase in the rat is detected by […], and the detection kit is a neuraminidase detection kit, which is measured according to the instruction manual of the test kit.
(§1) 1. The acute myocardial ischemia model in rats with ISO: SD rats are selected and divided according to body weight into five groups: blank control group, model group, coptisine high dose group (100 mg/kg p.o.) and coptisine medium dose group 25 mg/kg p.o.), coptisine low dose group (10 mg/kg p.o.), with 10 rats in each group. The groups with drug administration are administered the drugs continuously for 3 days, and on the second day of drug administration, and 30 minutes after the drug administration, they are performed subcutaneous injection of ISO at a dose of 60 mg/kg; on the third day of drug administration, and 30 minutes after the drug administration, they are also performed subcutaneous injection of ISO at a dose of 60 mg/kg; on the fourth day their tissue samples such as blood and heart are collected on the fourth day.
3.3 Method for determination of myocardial neuraminidase level: same as in Embodiment 1.

serum CK-MB and D-LDH = experiment: Serum myocardial damage indicators CK-MB and D-LDH after isoproterenol modeling; type: in vivo, SD rats; design: Serum CK-MB concentration: unit not given here; details: ISO model rats; for Serum CK-MB concentration / Serum D-LDH concentration: 3 days
Procedure: (§2) 1. The acute myocardial ischemia model in rats with ISO: SD rats are selected and divided according to body weight into six groups: blank control group, model group, ZA high dose group (0.5 mg/kg iv) and ZA low dose group (0.2 mg/kg iv), OS high dose group (10 mg/kg po), OS low dose group (5 mg/kg po), with 10 rats in each group. The groups with drug administration are administered the drugs continuously for 3 days, and on the second day of drug administration, and 30 minutes after the drug administration, they are performed subcutaneous injection of ISO at a dose of 60 mg/kg; on the third day of drug administration, and 30 minutes after the drug administration, they are also performed subcutaneous injection of ISO at a dose of 60 mg/kg; on the fourth day their tissue samples such as blood and heart are collected on the fourth day.
3.4 the Detection Method for Serum Myocardial Damage Indicator CK-MB and D-LDH
Measure CK-MB and D-LDH according to the CK-MB detection kit (Roche) and D-LDH detection kit (Invitrogen) operating instructions, respectively.
as §1
3.4 Detection method for serum myocardial damage index CK-MB and D-LDH: same as in Embodiment 1.

[1] = tested on: left anterior descending coronary artery ligation model; experiment: Acute myocardial ischemia model in rats with left anterior descending coronary artery ligation; type: in vivo, SD rats; details: in words
Procedure: 2. The acute myocardial ischemia model in rats with left anterior descending coronary artery ligation: SD rats are selected and divided into 6 groups according to body weight: blank control group, model group, ZA high dose group (0.5 mg/kg iv). ZA low dose group, (0.2 mg/kg iv), OS high-dose group (10 mg/kg po) and OS low-dose group (5 mg/kg po), with 10 rats in each group. The groups with drug administration are pre-administered drugs 24 h and 12 h in advance before the rats are anesthetized with 3% chloral hydrate at 10 ml/kg, laid flat on their backs and fixed on the rat plate. Then cut them open at between left 4th and 5th ribs to open the pericardium, expose the heart, gently press the thorax to extrude the heart, find the left anterior descending coronary artery in the pulmonary artery cone and left atrium, and immediately bind the root of the left anterior descending coronary artery (pulmonary artery cone and left atrial appendage) with suture 0; push the heart back to the chest, and squeeze out the blood and gas in the chest cavity, close the chest cavity quickly, suture the skin, and the chest opening time is no more than 30 s. […]
The level of myocardial neuraminidase in the rat is detected by […], and the detection kit is a neuraminidase detection kit, which is measured according to the instruction manual of the test kit. […]

[2] = tested on: isoproterenol-induced acute myocardial ischemia; experiment: Electrocardiogram in the acute myocardial ischemia model in rats with ISO; type: in vivo, SD rats; details: for Impact on the ECG (myocardial damage): all dose groups, in words
Procedure: as §2
3.1 Record the Electrocardiogram
Record the electrocardiogram of each group using standard II lead
as §1
3.1 Record ECG: Same as Embodiment 1.

[3] = tested on: isoproterenol-induced acute myocardial ischemia; experiment: Cardiac pathology (HE sections) in the acute myocardial ischemia model in rats with ISO; type: in vivo, SD rats; details: for Effect on myocardial cell morphology (cardiac pathological sections): all dose groups, in words
Procedure: as §2
3.2 Observe the Cardiac Pathology
Fix the myocardial tissue of the apical site of the hearts in 10% formaldehyde solution, obtain material conventionally, perform dehydration, embedding in paraffin, and make it into sheets (4 μm thick), stain them with HE, and observe them under an optical microscope.
as §1
3.2 Observing the pathological section of the heart: same as in Embodiment 1.

neuraminidase = experiment: Inhibitory rate on neuraminidase (neuraminidase assay kit, fluorescence); type: biochemical
Procedure: 3.5 Determination of the inhibitory rate of coptisine on neuraminidase
Neuraminidase activity is determined using a neuraminidase assay kit. Accurately weigh standard coptisine, and prepare 200 μM (high dose group), 100 μM (medium dose group), and 50 μM (low dose group) solution in that order. To prepare a standard curve, add 70 μl of neuraminidase assay buffer to each well in a 96-well fluorescent plate, and add 0, 1, 2, 5, 7.5 and 10 μl of neuraminidase to each well, respectively. Then add […] of Milli-Q water per well so the total volume of each well is 90 μl. To test the sample, add 70 μl of neuraminidase detection buffer to each well of a 96-well fluorescent plate, then add 10 μl of neuraminidase and 10 μl of coptisine solution in different concentrations per well. Add 0-10 μl of Milli-Q water per well so the total volume of each well is 90 After shaking for about 1 minute, incubate at 37° C. for 2 minutes so the inhibitor fully interacts with neuraminidase; then add 10 μl of neuraminidase fluorescein substrate per well, mix by shaking, incubate at 37° C. for 30 minutes and then perform fluorescence measurement at excitation wavelength 322 nm and emission wavelength of 450 nm.

[4] = oseltamivir phosphate high dose group, 10 mg/kg po
[5] = oseltamivir phosphate low dose group, 5 mg/kg po
[6] = zanamivir high dose group, 0.5 mg/kg iv
[7] = zanamivir low dose group, 0.2 mg/kg iv
[8] = high dose coptisine group, 100 mg/kg p.o.
[9] = low dose coptisine group, 10 mg/kg p.o.
[10] = medium dose coptisine group, 25 mg/kg p.o.

In the case of `CCOC(=O)C1=C[C@@H](OC(CC)CC)[C@H](NC(C)=O)[C@@H](N)C1` [Oseltamivir phosphate, oseltamivir phosphate], the “Effect on the expression level of myocardial neuraminidase” value (shortened to “Effect on the expression level”) (myocardial neuraminidase) is reported as “effective in inhibiting the increase in neuraminidase expression induced by myocardial ischemia in a dose-dependent manner”, the “Neuraminidase concentration (myocardial neuraminidase expression level)” value (“Neuraminidase concentration” below) (myocardial neuraminidase; [4]) is reported as 16.7202 U/μL and the “Neuraminidase concentration” value (myocardial neuraminidase; [5]) is reported as 21.547 U/μL. The “Serum CK-MB concentration” value (serum CK-MB and D-LDH; [4]) was 2846.67, the “Serum D-LDH concentration” value (serum CK-MB and D-LDH; [4]) was 7.208 mU/ml and the “Serum CK-MB concentration” value (serum CK-MB and D-LDH; [5]) was 2964.44. For the same compound, the “Serum D-LDH concentration” value (serum CK-MB and D-LDH; [5]) was 7.793 mU/ml, the “Electrocardiogram and cardiac pathology” value [1] was “significantly improve electrocardiogram and cardiac pathology in rats” and the “Impact on the ECG (myocardial damage)” value [2] was “effectively improve myocardial damage in a dose-dependent manner”. For the same compound, the “Effect on myocardial cell morphology (cardiac pathological sections)” value (from here on “Effect on myocardial cell morphology”) [3] was “effective in improving myocardial damage in a dose-dependent manner”.

For `CC(=O)N[C@H]1[C@H]([C@H](O)[C@H](O)CO)OC(C(=O)O)=C[C@@H]1N=C(N)N` [Zanamivir, zanamivir], the “Effect on the expression level” value (myocardial neuraminidase) was “effective in inhibiting the increase in neuraminidase expression induced by myocardial ischemia in a dose-dependent manner”, the “Neuraminidase concentration” value (myocardial neuraminidase; [6]) was 16.9244 U/μL and the “Neuraminidase concentration” value (myocardial neuraminidase; [7]) was 21.8341 U/μL. The “Serum CK-MB concentration” value (serum CK-MB and D-LDH; [6]) was 3544.44, the “Serum D-LDH concentration” value (serum CK-MB and D-LDH; [6]) was 8.383 mU/ml and the “Serum CK-MB concentration” value (serum CK-MB and D-LDH; [7]) was 3713.33. For the same compound, the “Serum D-LDH concentration” value (serum CK-MB and D-LDH; [7]) was 8.804 mU/ml, the “Electrocardiogram and cardiac pathology” value [1] was “significantly improve electrocardiogram and cardiac pathology in rats” and the “Impact on the ECG (myocardial damage)” value [2] was “effectively improve myocardial damage in a dose-dependent manner”. For the same compound, the “Effect on myocardial cell morphology” value [3] was “effective in improving myocardial damage in a dose-dependent manner”.

`c1c2c(cc3c1OCO3)-c1cc3ccc4c(c3c[n+]1CC2)OCO4` [coptisine] was tested, and the “Neuraminidase inhibition, assessment in words” value (neuraminidase; 50-200 μM) was “potent neuraminidase inhibitor”, the “Inhibitory rate on neuraminidase” value (neuraminidase; coptisine concentration 50 μM) was 5.64% and the “Inhibitory rate on neuraminidase” value (neuraminidase; coptisine concentration 100 μM) was 28.69%. For the same compound, the “Inhibitory rate on neuraminidase” value (neuraminidase; coptisine concentration 200 μM) was 56.25%, the “Effect on the expression level” value (myocardial neuraminidase) was “effectively inhibit the increase of neuraminidase expression induced by myocardial ischemia in a dose-dependent manner” and the “Reduction of myocardial neuraminidase expression compared with the model group” value (myocardial neuraminidase; [8]) was “about 40%”. For the same compound, the “Reduction of myocardial neuraminidase expression compared with the model group” value (myocardial neuraminidase; [9]) was “about 21%”, the “Reduction of myocardial neuraminidase expression compared with the model group” value (myocardial neuraminidase; [10]) was “about 29%” and the “Reduction of serum CK-MB and LDH levels compared with the model group” value (“Reduction of serum CK-MB and LDH levels” for short) (serum CK-MB and D-LDH; [8]) was “about 40%”. For the same compound, the “Reduction of serum CK-MB and LDH levels” value (serum CK-MB and D-LDH; [9]) was “about 20%”, the “Reduction of serum CK-MB and LDH levels” value (serum CK-MB and D-LDH; [10]) was “about 30%” and the “Impact on the ECG (myocardial damage)” value [2] was “effectively improve myocardial damage in a dose-dependent manner”. For the same compound, the “Electrocardiogram compared with blank control group” value [2, 8] was “basically consistent with the blank control group”, the “Effect on myocardial cell morphology” value [3] was “effectively improve myocardial damage in a dose-dependent manner” and the Inflammatory cell infiltration [3, 8] was “no inflammatory cell infiltration”. For the same compound, the “Myocardial cell morphology and intercellular fissure compared with blank control group” value [3, 8] was “basically consistent with the blank control group”.
